In PMC12446003, “Pharmacological characterization of linaprazan glurate (X842), a novel potassium-competitive acid blocker, in vitro and in vivo” (Frontiers in Pharmacology, 2025):
Values joined by “and” are separate entries in the source; they are usually repeats but may differ in a detail not shown here. Equal entries are not always repeated. Where two headings read alike, the source gives them in different places.

Tests used:
[1] = target: T1, Gastric H+/K+-ATPase (Oryctolagus cuniculus, UniProt P27112); experiment: Inhibition of H+/K+-ATPase activity (Malachite Green Pi assay); assay type: biochemical, rabbit
T1 construct: Gastric H^+/K^+-ATPase was prepared from rabbit glands; from tissue; host or cells: rabbit gastric glands
Procedure: The H^+/K^+-ATPase inhibition reaction was performed in buffer (50 mM Tris-HCl, 5 mM magnesium chloride, 10 μM valinomycin, pH 6.5) with or without 20 mM potassium chloride (KCl), and inorganic phosphate (Pi) was detected using Malachite Green solution, made from 0.1% malachite green, 1.5% hexaammonium molybdate, and 0.2% Tween-20 in a ratio of 100:25:2 ([Skou, 1982]; [Feng et al., 2011]). Gastric H^+/K^+-ATPase was prepared from rabbit glands, as described previously ([Kondo et al., 2012]; [Arikawa et al., 2012]). The reaction occurred in a 96-well plate with a total volume of 50 µL/well, including buffer, enzyme, ATP, and drug. After 30 min at 37 °C for enzyme stability, ATP was added at 0.2 mM to start the reaction, which was optimized from the titration experiments. The reaction lasted 20 min at 37 °C, followed by the addition of Malachite Green for the colorimetric assay. The enzyme control wells contained the full enzyme system, while the buffer control wells contained only buffer to correct for background values. Absorbance was measured at 620 nm using a plate reader (SpectraMax M5). The inhibition rate was calculated using the following formula, accounting for the enzyme activity in the presence and absence of K^+: Inhibition Rate %=ODwith K+and enzyme,without drug−ODwith K+and enzyme,with drug /ODwith K+and enzyme,without drug−ODwithout K+and enzyme,without drug×100 where “OD with K^+ and enzyme, without drug” is the optical density measured at 620 nm in the presence of K^+ and enzyme, without the tested drug (enzyme control wells); “OD with K^+ and enzyme, with drug” is the optical density measured at 620 nm in the presence of K^+ and enzyme, with the tested drug; and “OD without K^+ and enzyme, without drug” is the optical density measured at 620 nm in the absence of K^+ and enzyme, without the tested drug (buffer control wells).

[2] = tested on: gastric acid secretion in pylorus-ligated rats; experiment: Gastric acid inhibition in pylorus-ligated rats; assay type: in vivo
Procedure: The rats were fasted overnight with ad libitum access to water. Drugs and vehicle were administered orally to rats in a blinded manner. The pylorus was ligated under ether anesthesia within 1 h after drug and vehicle administration, and the abdomen was closed by suturing. At 4 h after pyloric ligation, the rats were sacrificed by CO2 asphyxiation, and the stomach was removed ([Hori et al., 2010]). The gastric contents were collected and centrifuged at 3,000 rpm for 10 min. The volume of each sample was measured, the gastric acid concentration was determined by acid-base titration, and the total acidity was calculated.

[3] = tested on: histamine-stimulated acid secretion in pylorus-ligated rats; experiment: Histamine-stimulated acid secretion in pylorus-ligated rat models; assay type: in vivo, Sprague-Dawley rats; conditions: histamine 30 mg/kg s.c., pylorus-ligated male rats
Procedure: 1.1 Histamine-stimulated acid secretion in pylorus-ligated rat models
The rats were fasted overnight with ad libitum access to water. Vehicle or X842 (2 mg/kg, 8 mg/kg) was administered orally to male Sprague-Dawley rats using a feeding catheter ina blinded manner. One hour after dosing, the pylorus was ligated under isoflurane anesthesia, and histamine (30 mg/kg/10 mL) was immediately administered subcutaneously. At 3 hours after histamine administration, the rats were sacrificed by carbon dioxide asphyxiation. The gastric contents were collected from the removed stomach. The gastric contents were collected and centrifuged at 3000 rpm for 10 minutes. The volume of each sample was measured, the gastric acid concentration was determined by acid-base titration, and the total acidity was […]
2.Supplementary Figures and Tables
2.1 Supplementary Figures

[4] = tested on: gastric pH; experiment: Phase I gastric pH holding time ratio; assay type: in vivo, humans; conditions: unpublished Phase I data
[5] = tested on: rats; experiment: Toxicity in rats (data to be published); assay type: in vivo
[6] = tested on: dogs; experiment: Toxicity in dogs (data to be published); assay type: in vivo
[7] = tested on: acid secretion; set-up: method as in Gedda et al., 2007; Scarpignato and Hunt, 2024; conditions: rats; ref Gedda et al., 2007; Scarpignato and Hunt, 2024; cited from earlier work
[8] = in the presence of K+ (20 mM KCl), pH 6.5, read-out: IC50, H+/K+-ATPase inhibition
[9] = in the presence of potassium ions, rabbit gastric glands, read-out: IC50 (Figure 7A)

T1 sequence (P27112 whole entry): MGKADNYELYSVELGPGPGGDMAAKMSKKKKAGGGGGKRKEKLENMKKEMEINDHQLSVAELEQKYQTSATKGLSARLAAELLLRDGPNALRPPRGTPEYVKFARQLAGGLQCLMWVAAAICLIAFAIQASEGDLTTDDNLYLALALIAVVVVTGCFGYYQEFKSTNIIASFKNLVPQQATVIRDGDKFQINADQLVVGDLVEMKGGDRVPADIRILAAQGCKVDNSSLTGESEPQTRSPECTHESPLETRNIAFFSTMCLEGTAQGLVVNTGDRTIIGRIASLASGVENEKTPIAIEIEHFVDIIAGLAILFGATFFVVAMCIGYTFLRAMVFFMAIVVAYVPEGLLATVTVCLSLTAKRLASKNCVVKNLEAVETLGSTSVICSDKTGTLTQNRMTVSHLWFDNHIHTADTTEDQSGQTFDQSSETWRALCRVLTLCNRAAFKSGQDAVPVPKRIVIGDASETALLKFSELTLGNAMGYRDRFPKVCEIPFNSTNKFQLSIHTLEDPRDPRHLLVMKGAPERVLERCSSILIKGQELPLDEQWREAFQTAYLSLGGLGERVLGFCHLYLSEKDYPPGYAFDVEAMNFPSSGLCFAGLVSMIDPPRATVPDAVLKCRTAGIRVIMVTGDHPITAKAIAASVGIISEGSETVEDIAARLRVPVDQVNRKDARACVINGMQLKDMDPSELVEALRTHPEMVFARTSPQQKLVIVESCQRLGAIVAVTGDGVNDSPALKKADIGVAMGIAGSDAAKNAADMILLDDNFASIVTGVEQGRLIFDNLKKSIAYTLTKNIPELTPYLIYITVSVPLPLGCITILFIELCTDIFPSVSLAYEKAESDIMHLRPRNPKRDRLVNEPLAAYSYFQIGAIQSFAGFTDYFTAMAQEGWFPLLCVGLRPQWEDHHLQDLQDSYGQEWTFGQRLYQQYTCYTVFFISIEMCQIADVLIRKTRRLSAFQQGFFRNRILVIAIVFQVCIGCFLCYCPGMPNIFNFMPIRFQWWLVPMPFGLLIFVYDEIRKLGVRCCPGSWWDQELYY
T1 sequence (P18597 whole entry partner): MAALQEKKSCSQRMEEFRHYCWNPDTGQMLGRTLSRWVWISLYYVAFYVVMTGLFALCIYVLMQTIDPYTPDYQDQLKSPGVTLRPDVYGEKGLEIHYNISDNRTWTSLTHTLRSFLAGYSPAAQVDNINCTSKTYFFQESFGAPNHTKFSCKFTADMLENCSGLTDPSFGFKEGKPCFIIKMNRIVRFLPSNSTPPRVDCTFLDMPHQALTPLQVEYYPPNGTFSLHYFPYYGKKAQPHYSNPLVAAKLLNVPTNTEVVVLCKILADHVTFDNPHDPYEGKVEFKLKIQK

SMILES	Inhibitory effect on H+/K+-ATPase in the absence of K+ [1]	Fold lower inhibitory activity against H+/K+-ATPase compared with linaprazan ([1]; in the presence of K+) [fold]	IC50 [1, 8]	IC50 [1, 9] [µM]	Duration of acid suppression ([2]; after a single oral dose)	Total acidity inhibitory rate (%) ([2]; oral 0.15 mg/kg, pylorus-ligated rats (not significant))	Total acidity inhibitory rate (%) ([2]; oral 0.5 mg/kg, pylorus-ligated rats)	Total acidity inhibitory rate (%) ([2]; oral 1.0 mg/kg, pylorus-ligated rats)	Total acidity inhibitory rate (%) ([2]; oral 1.5 mg/kg, pylorus-ligated rats)	Dose required for 50% inhibition (ID50) ([2]; oral, pylorus-ligated rats, total gastric acid) [mg/kg]	Total acidity inhibitory rate (%) ([3]; oral 2 mg/kg)	Total acidity inhibitory rate (%) ([3]; oral 8 mg/kg)	Gastric pH ≥4 holding time ratio (HTR) ([4]; oral doses ≥50 mg, throughout the 24-h period) [%]	Gastric pH ≥4 holding time ratio (HTR), nocturnal ([4]; oral doses ≥100 mg, nocturnal periods (12–24 h)) [%]	Adverse effects (acute, reproductive, teratogenic, carcinogenic toxicity) [5]	Adverse effects (acute, reproductive, teratogenic, carcinogenic toxicity) [6]	Duration of inhibitory effect on acid secretion [7] [h]
Cc1cccc(C)c1CNc1cc(C(=O)NCCOC(=O)CCCC(=O)O)cn2c(C)c(C)nc12 [X842, linaprazan glurate]	No measurable inhibitory effect	~10	0.436 µM	0.436	at least 24 h	6	44	61	85	0.55	66	71	> 50	> 50	No significant adverse effects	No significant adverse effects	–
Cc1cccc(C)c1CNc1cc(C(=O)NCCO)cn2c(C)c(C)nc12 [linaprazan]	No measurable inhibitory effect	–	0.04 µM and 0.0402 µM	0.0402	–	–	–	–	–	–	–	–	–	–	–	–	24
